Reference: patent US12685735B2 (Foghorn Therapeutics Inc., priority 2020, dated 2026)
Like-named read-outs stand apart in the source and are kept apart here.

What was measured:
[1] = target: BRG-1 (Homo sapiens, UniProt P51532); test: ATPase catalytic activity assay of BRG-1 (ADP-Glo); assay type: biochemical; details: ATPase catalytic activity, ADP-Glo; for IC50: read-out: BRG1 IC50 (μM)*; for Emax: read-out: BRG1 Max % Inhibition
Method in brief: (§1)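 Measurement is luminescence, reflecting ADP produced by ATPase turnover. The two-step ADP-Glo detection consists of ATP depletion for 40 min and ADP-to-ATP conversion with luciferase for 60 min, both at room temperature.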

[2] = target: BRM (Homo sapiens, UniProt P51531); test: ATPase catalytic activity assay of BRM (ADP-Glo); assay type: biochemical; details: for IC50: read-out: BRM IC50 (μM)*
Method in brief: as §1

BRG-1, sequence (P51532 whole entry): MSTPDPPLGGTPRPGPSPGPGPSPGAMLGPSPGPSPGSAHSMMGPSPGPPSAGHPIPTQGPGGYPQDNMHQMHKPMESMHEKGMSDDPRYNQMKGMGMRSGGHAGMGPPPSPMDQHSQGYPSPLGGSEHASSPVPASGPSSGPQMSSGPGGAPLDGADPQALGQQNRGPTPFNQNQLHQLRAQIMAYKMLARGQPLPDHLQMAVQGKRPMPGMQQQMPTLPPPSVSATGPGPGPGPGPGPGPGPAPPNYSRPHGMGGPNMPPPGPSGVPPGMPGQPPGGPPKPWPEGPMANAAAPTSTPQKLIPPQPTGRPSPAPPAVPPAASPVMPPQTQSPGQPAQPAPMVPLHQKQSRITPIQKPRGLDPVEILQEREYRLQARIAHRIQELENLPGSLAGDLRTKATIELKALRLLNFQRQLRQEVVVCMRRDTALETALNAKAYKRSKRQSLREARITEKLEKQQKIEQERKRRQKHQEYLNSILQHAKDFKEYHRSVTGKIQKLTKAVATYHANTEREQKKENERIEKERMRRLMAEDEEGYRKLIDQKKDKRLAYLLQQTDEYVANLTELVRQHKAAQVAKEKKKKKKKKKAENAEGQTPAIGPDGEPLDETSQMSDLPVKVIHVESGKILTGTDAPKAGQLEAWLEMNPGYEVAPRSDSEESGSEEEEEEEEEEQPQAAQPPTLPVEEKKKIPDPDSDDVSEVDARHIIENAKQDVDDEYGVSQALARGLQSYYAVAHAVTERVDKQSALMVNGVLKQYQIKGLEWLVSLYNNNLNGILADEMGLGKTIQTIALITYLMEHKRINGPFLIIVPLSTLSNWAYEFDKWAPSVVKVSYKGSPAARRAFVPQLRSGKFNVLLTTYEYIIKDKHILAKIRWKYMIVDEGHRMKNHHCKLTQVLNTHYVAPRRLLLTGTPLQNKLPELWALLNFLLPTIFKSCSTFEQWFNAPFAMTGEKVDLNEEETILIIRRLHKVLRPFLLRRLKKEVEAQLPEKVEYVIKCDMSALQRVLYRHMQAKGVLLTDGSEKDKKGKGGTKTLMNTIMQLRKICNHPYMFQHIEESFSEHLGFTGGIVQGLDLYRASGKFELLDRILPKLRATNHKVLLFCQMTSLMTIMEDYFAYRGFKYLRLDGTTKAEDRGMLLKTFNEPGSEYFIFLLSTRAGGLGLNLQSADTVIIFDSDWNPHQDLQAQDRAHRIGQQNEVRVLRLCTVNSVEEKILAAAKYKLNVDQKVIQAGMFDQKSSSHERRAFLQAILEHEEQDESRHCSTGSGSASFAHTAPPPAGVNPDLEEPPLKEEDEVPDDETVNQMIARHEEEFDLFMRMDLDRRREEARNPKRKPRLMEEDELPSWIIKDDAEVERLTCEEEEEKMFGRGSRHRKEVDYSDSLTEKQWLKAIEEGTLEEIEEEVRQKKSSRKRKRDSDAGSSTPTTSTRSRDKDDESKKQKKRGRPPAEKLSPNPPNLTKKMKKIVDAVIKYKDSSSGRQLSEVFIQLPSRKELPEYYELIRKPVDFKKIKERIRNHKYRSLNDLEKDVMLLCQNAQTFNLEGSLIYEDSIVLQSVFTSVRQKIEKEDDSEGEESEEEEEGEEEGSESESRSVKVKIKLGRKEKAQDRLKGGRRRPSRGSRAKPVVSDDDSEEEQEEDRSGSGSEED
BRM, sequence (P51531 whole entry): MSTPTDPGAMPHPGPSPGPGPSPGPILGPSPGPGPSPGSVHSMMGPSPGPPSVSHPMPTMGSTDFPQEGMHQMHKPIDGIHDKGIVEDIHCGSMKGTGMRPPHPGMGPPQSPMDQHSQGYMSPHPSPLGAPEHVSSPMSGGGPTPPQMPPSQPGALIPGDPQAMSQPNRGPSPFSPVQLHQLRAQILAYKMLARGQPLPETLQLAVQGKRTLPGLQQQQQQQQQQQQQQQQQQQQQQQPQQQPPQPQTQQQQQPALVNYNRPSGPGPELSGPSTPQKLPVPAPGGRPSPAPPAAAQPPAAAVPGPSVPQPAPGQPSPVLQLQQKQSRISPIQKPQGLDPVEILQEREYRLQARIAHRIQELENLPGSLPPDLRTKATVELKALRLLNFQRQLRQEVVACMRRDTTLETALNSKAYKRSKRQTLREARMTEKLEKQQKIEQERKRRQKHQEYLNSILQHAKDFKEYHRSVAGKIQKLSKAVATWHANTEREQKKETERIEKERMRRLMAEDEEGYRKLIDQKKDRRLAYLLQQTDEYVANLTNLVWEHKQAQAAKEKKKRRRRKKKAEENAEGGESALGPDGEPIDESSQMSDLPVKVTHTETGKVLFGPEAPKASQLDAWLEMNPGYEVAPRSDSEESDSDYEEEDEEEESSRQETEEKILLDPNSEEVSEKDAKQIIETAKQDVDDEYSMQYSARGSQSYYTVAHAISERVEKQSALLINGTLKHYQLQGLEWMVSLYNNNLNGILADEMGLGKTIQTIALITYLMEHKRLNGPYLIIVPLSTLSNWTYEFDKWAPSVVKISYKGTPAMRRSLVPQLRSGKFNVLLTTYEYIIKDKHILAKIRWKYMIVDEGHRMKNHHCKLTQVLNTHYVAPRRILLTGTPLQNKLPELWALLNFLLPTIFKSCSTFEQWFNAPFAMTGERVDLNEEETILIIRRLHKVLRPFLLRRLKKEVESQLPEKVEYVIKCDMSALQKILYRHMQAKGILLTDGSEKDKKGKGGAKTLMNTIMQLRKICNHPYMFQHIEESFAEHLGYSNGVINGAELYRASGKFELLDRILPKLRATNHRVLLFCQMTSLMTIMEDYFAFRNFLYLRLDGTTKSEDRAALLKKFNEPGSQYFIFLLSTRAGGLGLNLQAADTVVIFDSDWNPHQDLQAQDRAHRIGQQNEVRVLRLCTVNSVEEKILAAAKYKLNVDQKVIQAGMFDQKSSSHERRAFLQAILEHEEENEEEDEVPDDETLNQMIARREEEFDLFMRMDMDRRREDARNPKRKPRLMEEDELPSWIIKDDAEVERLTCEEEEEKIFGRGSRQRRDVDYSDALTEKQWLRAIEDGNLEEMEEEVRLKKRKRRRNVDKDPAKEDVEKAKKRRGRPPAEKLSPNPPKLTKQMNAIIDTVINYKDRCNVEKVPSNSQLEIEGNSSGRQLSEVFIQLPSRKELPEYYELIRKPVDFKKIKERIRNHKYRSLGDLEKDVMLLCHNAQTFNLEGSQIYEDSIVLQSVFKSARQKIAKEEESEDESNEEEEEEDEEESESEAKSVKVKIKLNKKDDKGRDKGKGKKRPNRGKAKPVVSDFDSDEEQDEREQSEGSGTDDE

SMILES | IC50 ([1]; 30 nM BRG-1, 400 μM ATP) | Emax ([1]; 30 nM BRG-1, 400 μM ATP) | BRM Max % Inhibition ([2]; 30 nM BRM, 400 μM ATP) | IC50 ([2]; 30 nM BRM, 400 μM ATP) | IC50 [1] | Emax [1] | BRM Max % Inhibition [2] | IC50 [2] | BRG1 Max % Inhibition [1]
C[C@@H]1CN(c2cccc(-c3csc(NC(=O)CNC(=O)c4ccnc(C(C)(C#N)CO)c4)n3)c2)C[C@H](C)O1 (stereo in doubt) [Compound 427, 2-((R)-2-cyano-1-hydroxypropan-2-yl)-N-(2-((4-(3-((cis)-2,6-dimethylmorpholino)phenyl)thiazol-2-yl)amino)-2-oxoethyl)isonicotinamide] | > 5 µM | > 85% | >85% | 0.1 to 1 µM | – | – | – | – | –
CSCC[C@H](NC(=O)c1ccc2c(c1)C(C)(O)C(=O)N2)C(=O)Nc1nc(-c2ccccc2)cs1 (stereo partly drawn) [Compound 85, 3-hydroxy-3-methyl-N—((S)-4-(methylthio)-1-oxo-1-((4-phenylthiazol-2-yl)amino)butan-2-yl)-2-oxoindoline-5-carboxamide] | – | – | – | – | > 5 µM | > 60% | >80% | > 5 µM | –
C[C@@H]1CN(c2cccc(-c3csc(NC(=O)[C@H](CO)NC(=O)c4ccnc(C(C)(C)C)c4)n3)c2)C[C@H](C)O1 [Compound 434, 2-(tert-butyl)-N-((S)-1-((4-(3-((cis)-2,6-dimethylmorpholino)phenyl)thiazol-2-yl)amino)-3-hydroxy-1-oxopropan-2-yl)isonicotinamide] | 1 to 5 µM | > 90% | >90% | 0.1 to 1 µM | – | – | – | – | –
C[C@@H]1CN(c2cccc(-c3csc(NC(=O)CNC(=O)c4ccc5c(c4)C(C)(C#N)COC5)n3)n2)C[C@H](C)O1 (stereo in doubt) [Compound 420, (R)-4-cyano-N-(2-((4-(6-((cis)-2,6-dimethylmorpholino)pyridin-2-yl)thiazol-2-yl)amino)-2-oxoethyl)-4-methylisochromane-6-carboxamide] | < 0.1 µM | > 95% | >95% | < 0.1 µM | – | – | – | – | –
C[C@@H]1CN(c2cccc(-c3csc(NC(=O)CNC(=O)c4ccc5c(c4)[C@@](C)(CO)CO5)n3)n2)C[C@H](C)O1 (single isomer, unassigned) [Compound 133] | – | – | – | – | 1 to 5 µM | > 70% | >95% | 0.1 to 1 µM | –
Cc1ccc(C(=O)NCC(=O)Nc2nc(-c3cccc(-c4ccn(C)n4)c3)cs2)cc1S(=O)(=O)C(C)C [Compound 46, 3-(isopropylsulfonyl)-4-methyl-N-(2-((4-(3-(1-methyl-1H-pyrazol-3-yl)phenyl)thiazol-2-yl)amino)-2-oxoethyl)benzamide] | – | – | – | – | 1 to 5 µM | > 60% | >95% | 0.1 to 1 µM | –
C[C@@H]1CN(c2cccc(-c3csc(NC(=O)CNC(=O)c4ccc5c(c4)[C@H](CO)CC5)n3)n2)C[C@H](C)O1 [Compound 162, (3R)-N-[2-[[4-[6-[(cis)-2,6-dimethylmorpholin-4-yl]-2-pyridyl]thiazol-2-yl]amino]-2-oxo-ethyl]-3-(hydroxymethyl)indane-5-carboxamide] | – | – | – | – | > 5 µM | > 40% | >70% | 0.1 to 1 µM | –
C[C@@]1(CO)CCc2c(C(=O)NCC(=O)Nc3nc(-c4cccc(-c5ccncc5)c4)cs3)cccc21 [Compound 197] | – | – | – | – | > 5 µM | < 30% | – | 1 to 5 µM | –
C[C@@H]1CN(c2cccc(-c3csc(NC(=O)CNC(=O)c4ccc5c(c4)C(C)(C#N)CNC5)n3)c2)C[C@H](C)O1 (stereo partly drawn) [Compound 310, 4-cyano-N-(2-((4-(3-((cis)-2,6-dimethylmorpholino)phenyl)thiazol-2-yl)amino)-2-oxoethyl)-4-methyl-1,2,3,4-tetrahydroisoquinoline-6-carboxamide] | – | – | – | – | 0.1 to 1 µM | > 95% | >95% | < 0.1 µM | –
CCC(C)(O)c1cccc(C(=O)NCC(=O)Nc2nc(-c3cccc(-c4ccncc4)c3)cs2)c1 (single isomer, unassigned) [Compound 81] | – | – | – | – | 0.1 to 1 µM | – | >90% | 0.1 to 1 µM | >70%
CCOC(=O)N1CCCC(c2csc(NC(=O)CNC(=O)c3ccc4c(c3)[C@](C)(F)COC4)n2)C1 (stereo in doubt) [Compound 283, ethyl (S)-3-(2-(2-((S)-4-fluoro-4-methylisochromane-6-carboxamido)acetamido)thiazol-4-yl)piperidine-1-carboxylate] | – | – | – | – | 0.1 to 1 µM | > 95% | >95% | < 0.1 µM | –
CN1C[C@](C)(C#N)c2cc(C(=O)NCC(=O)Nc3nc(-c4cc(F)cc(N5CCC5)c4)cs3)ccc21 [Compound 288, (R)-N-(2-((4-(3-(azetidin-1-yl)-5-fluorophenyl)thiazol-2-yl)amino)-2-oxoethyl)-3-cyano-1,3-dimethylindoline-5-carboxamide] | – | – | – | – | > 5 µM | > 75% | >75% | 0.1 to 1 µM | –

Now from value to compound:

IC50 ([1]; 30 nM BRG-1, 400 μM ATP) | Emax ([1]; 30 nM BRG-1, 400 μM ATP) | BRM Max % Inhibition ([2]; 30 nM BRM, 400 μM ATP) | IC50 ([2]; 30 nM BRM, 400 μM ATP) | IC50 [1] | Emax [1] | BRM Max % Inhibition [2] | IC50 [2] | BRG1 Max % Inhibition [1] | SMILES
– | – | – | – | 0.1 to 1 µM | > 95% | >95% | < 0.1 µM | – | COc1cccc(-c2csc(NC(=O)CNC(=O)c3ccc4c(c3)[C@](C)(F)COC4)n2)c1 [Compound 312, (S)-4-fluoro-N-(2-((4-(3-methoxyphenyl)thiazol-2-yl)amino)-2-oxoethyl)-4-methylisochromane-6-carboxamide]
– | – | – | – | < 0.1 µM | > 95% | >95% | < 0.1 µM | – | Cc1cc(-c2cccc(-c3csc(NC(=O)CNC(=O)c4cccc(S(=O)(=O)C(C)C)c4)n3)c2)cc(C)n1 [Compound 18, N-(2-((4-(3-(2,6-dimethylpyridin-4-yl)phenyl)thiazol-2-yl)amino)-2-oxoethyl)-3-(isopropylsulfonyl)benzamide]
– | – | – | – | 0.1 to 1 µM | > 85% | >85% | < 0.1 µM | – | C[C@@H]1CN(c2cccc(-c3csc(NC(=O)CNC(=O)c4ccc5c(c4)CCOC5)n3)n2)C[C@H](C)O1 [Compound 366, N-(2-((4-(6-((cis)-2,6-dimethylmorpholino)pyridin-2-yl)thiazol-2-yl)amino)-2-oxoethyl)isochromane-6-carboxamide]
– | – | – | – | 0.1 to 1 µM | > 95% | >95% | < 0.1 µM | – | C[C@@]1(C#N)COCc2ccc(C(=O)NCC(=O)Nc3nc(-c4cccc([C@H]5CCO5)c4)cs3)cc21 [Compound 359, (R)-4-cyano-4-methyl-N-(2-((4-(3-((trans)-oxetan-2-yl)phenyl)thiazol-2-yl)amino)-2-oxoethyl)isochromane-6-carboxamide]
– | – | – | – | < 0.1 µM | > 95% | >95% | < 0.1 µM | – | C[C@@H](CO)S(=O)(=O)c1cccc(C(=O)NCC(=O)Nc2nc(-c3cccc(-c4ccncc4)c3)cs2)c1 [Compound 115, (S)-3-((1-hydroxypropan-2-yl)sulfonyl)-N-(2-oxo-2-((4-(3-(pyridin-4-yl)phenyl)thiazol-2-yl)amino)ethyl)benzamide]
– | – | – | – | < 0.1 µM | > 95% | >95% | < 0.1 µM | – | C[C@@H]1CN(c2cccc(-c3csc(NC(=O)CNC(=O)c4ccc5c(c4)[C@](C)(C#N)CC5)n3)n2)C[C@H](C)O1 [Compound 152, (R)-3-cyano-N-(2-((4-(6-((cis)-2,6-dimethylmorpholino)pyridin-2-yl)thiazol-2-yl)amino)-2-oxoethyl)-3-methyl-2,3-dihydro-1H-indene-5-carboxamide]
